Results: PubChem BioAssay (NCI)
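Values below derive from 48-hour exposures of cells grown in 96-well plates, with endpoints linearly interpolated between the two concentrations bracketing the appropriate inhibition level. At the GI50, growth is halved. TGI marks complete inhibition of growth.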

Experiments:
Experiment in all cases: growth of human tumour cells (NCI), 48 h
[1] = test system: SN12C renal
[2] = test system: MALME-3M melanoma
[3] = test system: RPMI-8226 leukemia
[4] = test system: M14 melanoma
[5] = test system: NCI-H226 lung
[6] = test system: OVCAR-4 ovarian
[7] = test system: OVCAR-3 ovarian
[8] = test system: PC-3 prostate
[9] = test system: MOLT-4 leukemia
[10] = test system: HCT-116 colon
[11] = test system: RXF 393 renal
[12] = test system: A549 NSCLC
[13] = test system: HS 578T breast
[14] = test system: UACC-62 melanoma
[15] = test system: IGROV1 ovarian
[16] = test system: MDA-MB-231 breast
[17] = test system: SR leukemia
[18] = test system: HOP-62 NSCLC
[19] = test system: BT-549 breast
[20] = test system: HL-60(TB) leukemia
[21] = test system: NCI-H522 lung
[22] = test system: COLO 205 colon
[23] = test system: NCI-H460 lung
[24] = test system: UO-31 renal
[25] = test system: SF-268 CNS
[26] = test system: NCI-H23 lung
[27] = test system: TK-10 renal
[28] = test system: NCI/ADR-RES ovarian
[29] = test system: LOX IMVI melanoma
[30] = test system: HCT-15 colon
[31] = test system: SF-539 CNS
[32] = test system: U251 CNS
[33] = test system: 786-0 renal
[34] = test system: KM12 colon
[35] = test system: SK-MEL-5 melanoma
[36] = test system: CAKI-1 renal
[37] = test system: OVCAR-8 ovarian
[38] = test system: SW-620 colon
[39] = test system: SK-MEL-28 melanoma
[40] = test system: CCRF-CEM leukemia
[41] = test system: SNB-75 CNS
[42] = test system: HOP-92 NSCLC
[43] = test system: MDA-N
[44] = test system: UACC-257 melanoma
[45] = test system: DU-145 prostate
[46] = test system: ACHN renal
[47] = test system: SK-OV-3 ovarian
[48] = test system: K-562 leukemia
[49] = test system: SNB-19 CNS
[50] = test system: OVCAR-5 ovarian
[51] = test system: MDA-MB-435
[52] = test system: EKVX NSCLC
[53] = test system: SK-MEL-2 melanoma
[54] = test system: T-47D breast
[55] = test system: A498 renal
[56] = test system: HCC-2998 colon
[57] = test system: SF-295 CNS
[58] = test system: HT29 colon

With `CC12CCC(O)CC1CCC1C2CCC2(C)C(C3=CC(=O)OC3)CCC12O` (stereo unspecified) the TGI [1] was 4.72 µM, the TGI [2] was 4.89 µM and the TGI [3] was > 30 µM. It also gave a TGI [4] of 19 µM, a TGI [5] of 27.7 µM and a TGI [6] of 5.39 µM. The TGI [7] was 10.3 µM, the TGI [8] was 13.1 µM and the TGI [9] was > 100 µM. The TGI [10] was 4.44 µM, the TGI [11] was 3.55 µM and the TGI [12] was 1.96 µM. The TGI [13] was > 100 µM, the TGI [14] was 12.8 µM and the TGI [15] was 19.4 µM. The TGI [16] was > 100 µM, the TGI [17] was > 100 µM and the TGI [18] was 6.01 µM. It also gave a TGI [19] of 4.53 µM, a TGI [20] of 8.36 µM and a TGI [21] of 4.9 µM. The TGI [22] was 12.2 µM, the TGI [23] was 3.99 µM and the TGI [24] was 8.23 µM. The TGI [25] was 7.07 µM, the TGI [26] was 4.76 µM and the TGI [27] was > 35.4 µM. It also gave a TGI [28] of 5.77 µM, a TGI [29] of 10.6 µM and a GI50 [30] of 2.39 µM. The TGI [30] was 5.75 µM, the TGI [31] was 3.2 µM and the TGI [32] was 27.8 µM. The TGI [33] was 4.78 µM, the TGI [34] was > 43.3 µM and the TGI [35] was 1.98 µM. For the same molecule, the TGI [36] was > 19.8 µM, the TGI [37] was 10.1 µM and the TGI [38] was > 36.8 µM. The TGI [39] was 33.7 µM, the TGI [40] was > 100 µM and the TGI [41] was 28.7 µM. The TGI [42] was > 41.9 µM, the TGI [43] was 6.38 µM and the TGI [44] was > 43.4 µM. It also gave a TGI [45] of 2.85 µM, a TGI [46] of 10.3 µM and a TGI [47] of 18.5 µM. For the same molecule, the TGI [48] was > 90.5 µM, the TGI [49] was 12.8 µM and the TGI [50] was 16.9 µM. It also gave a TGI [51] of 9.38 µM, a TGI [52] of 5.88 µM and a TGI [53] of 22.7 µM. It also gave a TGI [54] of 14.7 µM, a TGI [55] of 25.6 µM and a TGI [56] of 10.2 µM. The TGI [57] was 10.8 µM and the TGI [58] was 13.6 µM.
In the case of `Nc1cccc2cc(Cl)cnc12`, the TGI [1] is reported as > 100 µM, the TGI [2] is reported as > 100 µM and the TGI [3] is reported as > 100 µM. For the same molecule, the TGI [4] was > 100 µM, the TGI [5] was > 100 µM and the TGI [6] was > 100 µM. The TGI [7] was > 100 µM, the TGI [8] was > 100 µM and the TGI [9] was > 100 µM. For the same molecule, the TGI [10] was > 100 µM, the TGI [11] was > 100 µM and the TGI [12] was > 100 µM. The TGI [13] was > 100 µM, the TGI [14] was > 100 µM and the TGI [15] was > 100 µM. For the same molecule, the TGI [16] was > 100 µM, the TGI [17] was > 100 µM and the TGI [18] was > 100 µM. For the same molecule, the TGI [19] was > 100 µM, the TGI [20] was > 100 µM and the TGI [21] was > 100 µM. The TGI [22] was > 100 µM, the TGI [23] was > 100 µM and the TGI [24] was > 100 µM. For the same molecule, the TGI [25] was > 100 µM, the TGI [26] was > 100 µM and the TGI [27] was > 100 µM. For the same molecule, the TGI [28] was > 100 µM, the TGI [29] was > 100 µM and the TGI [30] was > 100 µM. The TGI [31] was > 100 µM, the TGI [32] was > 100 µM and the TGI [33] was > 100 µM. The TGI [34] was > 100 µM, the TGI [35] was > 100 µM and the TGI [36] was > 100 µM. For the same molecule, the TGI [37] was > 100 µM, the TGI [38] was > 100 µM and the TGI [39] was > 100 µM. For the same molecule, the TGI [40] was > 100 µM, the TGI [41] was > 100 µM and the TGI [42] was > 100 µM. For the same molecule, the TGI [43] was > 100 µM, the TGI [44] was > 100 µM and the TGI [45] was > 100 µM. For the same molecule, the TGI [46] was > 100 µM, the TGI [47] was > 100 µM and the TGI [48] was > 100 µM. For the same molecule, the TGI [49] was > 100 µM, the TGI [50] was > 100 µM and the TGI [51] was > 100 µM. The TGI [52] was > 100 µM, the TGI [54] was > 100 µM and the TGI [55] was > 100 µM. The TGI [56] was > 100 µM, the TGI [57] was > 100 µM and the TGI [58] was > 100 µM.
